Experimental data reported in patent publication US20240368164A1, “PURINE NUCLEOSIDES, THEIR INTERMEDIATES, AND METHODS OF PREPARATION THEREOF” (Astrocyle Pharmaceuticals, Inc., priority 2021, published 2024).

Tests used:
[1] = Plasma protein binding (free fraction); assay type: in vitro ADME, mouse
From the text: Example 3 of U.S. Pat. No. 9,789,131, which is incorporated herein by reference, describes assays for determining the plasma and brain free fraction of certain compounds such as I-1. Compounds described herein may be evaluated using such assays or similar variants thereof.

[2] = test system: photothrombosis-induced stroke in mice; test: Mouse photothrombotic stroke model; assay type: in vivo
Experimental: Photothrombosis-induced Stroke: Photothrombosis is performed as described in Zheng et al 2010 (PloS One 5 (12): e14401). In brief, Rose Bengal is a fluorescent dye that when injected into the vasculature and excited, generates singlet oxygen that damages the endothelial wall and induces a local thrombosis (clot). Using this technique, mice are given a 0.1 mL tail-vein injection of sterilized Rose Bengal (RB, Sigma, U.S.A.) in artificial cerebral spinal fluid (aCSF). The RB concentration is 20 mg/mL. A cortical region is centered in the imaging field and illuminated with a green laser (543 nm, 5 mW) using a 0.8-NA 40× water-immersion objective (Nikon, Tokyo). The clot formation is monitored in real time until the targeted vessel or downstream capillaries are firmly occluded. Stable clots are subsequently identified by a non-fluorescent vessel segmentation ending with highly fluorescent regions. […] Treatments, at doses such as 0.5 μmol/kg are introduced via intraperitoneal injections (i.p.). For experiments with A3 receptor antagonist MRS1523, mice are administered intraperitoneal injections (2 mg/kg) at the 0 and 2 hour timepoints to ensure receptor antagonism throughout the course of the study.
Animals and Photothrombosis-induced Stroke: Stroke is performed as described in Zheng et al 2010 (PloS One 5 (12): e14401). Female C57Bl/6 mice (4-6 months) are used in this study. From the methods of this manuscript: Mice are anesthetized at 3% isoflurane with 100% oxygen and subsequently maintained at 1% isoflurane through a nosecone. Depth of anesthesia is monitored and regulated according to vital signs, pinch withdrawal and eye blinks. Body temperature is maintained at 37° C. by a feedback-controlled heating pad (Gaymar T/Pump). Vital signs including oxygen saturation, respiratory rate, and heart rate are continuously monitored by using the MouseOx system (STARR Life Sciences). […]
Post photothrombotic infarction evaluation. The size of cerebral infarcts is evaluated using 2,3,5-Triphenyltetrazolium chloride (TTC) staining as described in Zheng et al 2010 (PloS One 5 (12): e14401). […]

[3] = test system: traumatic brain injury (TBI) in mice; test: Mouse traumatic brain injury (TBI) model; assay type: in vivo
Experimental: Animals and traumatic brain injury (TBI): TBI is performed with a controlled closed skull injury model as described in Talley-Watts et al. 2012 (J. Neurotrauma 30, 55-66). Following the method described therein, a pneumatic impact device is used to generate a moderate TBI leaving the skull and dura matter intact. To achieve this, C57BL/6 mice are anesthetized with isoflurane (3% induction, 1% maintenance) in 100% oxygen. A body temperature of 37° C. is maintained using a temperature-controlled heated surgical table. A small midline incision is made on the scalp using aseptic surgical techniques. A 5 mm stainless steel disc is positioned on the skull and fixed using superglue on the right parietal bone between bregma and lamda over the somatosensory cortex. The mouse is then positioned on a stage directly under the pneumatic impact tip. […] Mice are placed in a Thermo-Intensive Care Unit (Braintree Scientific model FV-1; 37° C.; 27% O2) and monitored until fully awake and moving freely. […]
Western Blot Analysis for GFAP: At selected survival times, mice are anesthetized under isoflurane and sacrificed. […] The homogenate is transferred to a 2 mL tube and centrifuged at 1000 g for 10 minutes at 4° C. and the supernatant is collected and analyzed. Protein concentration is determined by the BCA assay using a 1:50 dilution. […]

CSc1nc(N)c2ncn([C@H]3[C@H](O)[C@H](O)[C@]4(CO)C[C@H]34)c2n1 [Compound I-1, (1R,2R,3S,4R,5S)-4-(6-Amino-2-(methylthio)-9H-purin-9-yl)-1-(hydroxymethyl)bicyclo[3.1.0]hexane-2,3-diol]
free (unbound) fraction in plasma [1]: 0.74 | efficacy of I-1 in presence of A3 antagonist MRS1523 ([2]; mouse photothrombotic stroke and TBI models, with MRS1523): blocked | efficacy in mouse photothrombotic stroke model ([2]; mouse, stroke): significant efficacy | efficacy in mouse TBI model [3]: significant efficacy
